The text below walks through data of US9096524B2, “Anthelmintic agents and their use” (Intervet International B.V., priority 2009, dated 2015).

In experiment [1] the test system is Haemonchus contortus. The experiment is described as follows: Efficacy against Haemonchus contortus in jirds. In kind it is in vivo, jirds (Meriones unguiculatus). The note with it: 72 h, read-out: % Reduction in H. The procedure:
Anthelmintic effects of compounds of this invention were tested in vivo using Haemonchus contuortus in jirds (Meriones unguiculatus). The jirds were orally infected with approximately 750-3,000 third-stage larvae of Haemonchus contortus. Ten days after infection, the jirds in the treatment groups were treated once orally or subcutaneously at a dose of 2, 10, and/or 50 mg per kg bodyweight. Three days after treatment, the jirds were necropsied, and the larvae burden in the stomach is determined. The efficacy is defined as the reduction of the mean larvae count in the jirds of the treatment groups in comparison to the infected jirds in the untreated negative control group.

Experiment [2] relates to A. galli (intestinal roundworm of chicken) larval stage 3; O. dentatum (nodular worm of swine) larval stages 3 and 4. The experiment is described as follows: Activity against Ascaridia galli and Oesophagostomum dentatum larvae in vitro (minimum effective concentration). In kind it is cell-based.
[3] abbreviates: read-out: MEC (minimum effective concentration) against one or more of the tested nematodes, in vitro, one or more of A. galli L3, O. dentatum L3, L4, threshold 1 μM.
Where [4] appears, read: read-out: MEC (minimum effective concentration) against one or more of the tested nematodes, in vitro, one or more of A. galli L3, O. dentatum L3, L4, threshold 7 μM.
The mark [5] stands for this setting: read-out: MEC (minimum effective concentration) against two or more of the tested nematodes, in vitro, two or more of A. galli L3, O. dentatum L3, L4, threshold 1 μM.
[6] abbreviates: jirds, 10 mg/kg, oral, single treatment, larvae burden in stomach 3 days after treatment.
Where [7] appears, read: sc, jirds, 10 mg/kg, subcutaneous, single treatment, larvae burden in stomach 3 days after treatment.
Where [8] appears, read: in vitro, one or more of A. galli L3, O. dentatum L3, L4, threshold 1 μM, read-out: MEC (minimum effective concentration) against one or more of the tested nematodes.
Where [9] appears, read: in vitro, one or more of A. galli L3, O. dentatum L3, L4, threshold 7 μM, read-out: MEC (minimum effective concentration) against one or more of the tested nematodes.
[10] abbreviates: in vitro, two or more of A. galli L3, O. dentatum L3, L4, threshold 1 μM, read-out: MEC (minimum effective concentration) against two or more of the tested nematodes.
The mark [11] stands for this setting: jirds, 50 mg/kg, oral, single treatment, larvae burden in stomach 3 days after treatment.
Setting [12] is: sc, jirds, 50 mg/kg, subcutaneous, single treatment, larvae burden in stomach 3 days after treatment.

Where two headings read alike, the source gives them in different places.

On to `O=C(CCN1CCC(OCc2ccc(C(F)(F)F)cc2)CC1)N1CCC(Nc2ccc([N+](=O)[O-])c(C(F)(F)F)c2)CC1` [Example 57, 1-[4-(4-nitro-3-trifluoromethyl-phenylamino)-piperidin-1-yl]-3-[4-(4-trifluoromethyl-benzyloxy)-piperidin-1-yl]-propan-1-one], for which the inhibition in vivo at 50 mg/kg turned out to be 85% in experiment [1] (po) and 84% in experiment [1] (sc). In addition, the minimal effective concentration in experiment [2] (setting [3]) is < 1 µM; in experiment [2] (setting [4]), < 7 µM; in experiment [2] (setting [5]), < 1 µM.

`CC(CN1CCN(c2ccc(Cl)cc2)CC1)C(=O)N1CCC(Nc2ccc([N+](=O)[O-])c(C(F)(F)F)c2)CC1` (stereo not shown) [Example 61, 3-[4-(4-chloro-phenyl)-piperazin-1-yl]-2-methyl-1-[4-(4-nitro-3-trifluoromethyl-phenylamino)-piperidin-1-yl]-propan-1-one]: the inhibition in vivo at 50 mg/kg in experiment [1] (po) and in experiment [1] (sc) was 100% each time. Moreover, the results for the minimal effective concentration in experiment [2] (setting [3]), in experiment [2] (setting [4]) and in experiment [2] (setting [5]) were < 1 µM, < 7 µM and < 1 µM, respectively.

As to `C[C@@H](CN1CCN(c2ccc(C(F)(F)F)cc2)CC1)C(=O)N1CCC(Nc2ccc([N+](=O)[O-])c(C(F)(F)F)c2)CC1` [Example 68, (S)-2-methyl-1-[4-(4-nitro-3-trifluoromethyl-phenylamino)-piperidin-1-yl]-3-[4-(4-trifluoromethyl-phenyl)-piperazin-1-yl]-propan-1-one], the inhibition in vivo at 10 mg/kg in experiment [1] (setting [6]) and in experiment [1] (setting [7]) was 99% in each case. Further, the values for the minimal effective concentration in experiment [2] (setting [8]), in experiment [2] (setting [9]) and in experiment [2] (setting [10]) were < 1 µM, < 7 µM and < 1 µM, respectively.

As for `Cc1cc(NC2CCN(C(=O)CCCN3CCN(c4ccc(C(F)(F)F)cc4)CC3)CC2)ncc1[N+](=O)[O-]` [Example 71, 1-[4-(4-methyl-5-nitro-pyridin-2-ylamino)-piperidin-1-yl]-4-[4-(4-trifluoromethyl-phenyl)-piperazin-1-yl]-butan-1-one], the inhibition in vivo at 50 mg/kg in experiment [1] (po) turned out to be 55%; in experiment [1] (sc), 35%. For the same compound, the results for the minimal effective concentration in experiment [2] (setting [3]), in experiment [2] (setting [4]) and in experiment [2] (setting [5]) were < 1 µM, < 7 µM and < 1 µM, respectively.

For the compound `O=C(CCCN1CCN(c2ccc(C(F)(F)F)cc2)CC1)NC1CCN(c2ccc([N+](=O)[O-])c(C(F)(F)F)c2)CC1` [Example 73, N-[1-(4-nitro-3-trifluoromethyl-phenyl)-piperidin-4-yl]-4-[4-(4-trifluoromethyl-phenyl)-piperazin-1-yl]-butyramide], the inhibition in vivo at 10 mg/kg in experiment [1] (setting [6]) amounted to 54%; in experiment [1] (setting [7]), 63%. The minimal effective concentration in experiment [2] (setting [8]) was < 1 µM; in experiment [2] (setting [9]) it was < 7 µM; in experiment [2] (setting [10]), < 1 µM.

For the compound `O=C(CCCN1CCN(c2ccc(C(F)(F)F)cc2)CC1)NC1CCN(c2ccc(SC(F)(F)F)cc2)CC1` [Example 76, 4-[4-(4-trifluoromethyl-phenyl)-piperazin-1-yl]-N-[1-(4-trifluoromethylsulfanyl-phenyl)-piperidin-4-yl]-butyramide], the figures for the inhibition in vivo at 10 mg/kg in experiment [1] (setting [6]) and in experiment [1] (setting [7]) were 67% and 13%, respectively. The values for the minimal effective concentration in experiment [2] (setting [8]), in experiment [2] (setting [9]) and in experiment [2] (setting [10]) were < 1 µM, < 7 µM and < 1 µM, respectively.

In the case of `O=C(CCN1CCN(c2nnc(C(F)(F)F)s2)CC1)N1CCC(Nc2ccc([N+](=O)[O-])c(C(F)(F)F)c2)CC1` [Example 124, 1-[4-(4-nitro-3-trifluoromethyl-phenylamino)-piperidin-1-yl]-3-[4-(5-trifluoromethyl-1,3,4-thiadiazol-2-yl)-piperazin-1-yl]-propan-1-one], the inhibition in vivo at 10 mg/kg is 47% in experiment [1] (po) and 75% in experiment [1] (sc). In addition, the minimal effective concentration is < 1 µM in experiment [2] (setting [3]), < 7 µM in experiment [2] (setting [4]) and < 1 µM in experiment [2] (setting [5]).

Consider `O=C(CCN1CCN(c2ccc(C(F)(F)F)nc2)CC1)N1CCC(Nc2ccc([N+](=O)[O-])c(C(F)(F)F)c2)CC1` [Example 126, 1-[4-(4-nitro-3-trifluoromethyl-phenylamino)-piperidin-1-yl]-3-[4-(6-trifluoromethyl-pyridin-3-yl)-piperazin-1-yl]-propan-1-one], for which the inhibition in vivo at 10 mg/kg in experiment [1] (po) is 64%; in experiment [1] (sc) it was 86%. Further, the minimal effective concentration in experiment [2] (setting [3]) was < 1 µM; in experiment [2] (setting [4]), < 7 µM; in experiment [2] (setting [5]), < 1 µM.

Consider `O=C(CCCC1CCN(c2ccc(C(F)(F)F)cc2)CC1)N1CCC(Nc2ccc([N+](=O)[O-])c(C(F)(F)F)c2)CC1` [Example 134, 1-[4-(4-nitro-3-trifluoromethyl-phenylamino)-piperidin-1-yl]-4-[1-(4-trifluoromethyl-phenyl)-piperidin-4-yl]-butan-1-one], for which the inhibition in vivo at 10 mg/kg in experiment [1] (po) and in experiment [1] (sc) was 99% throughout. Further, the figures for the minimal effective concentration in experiment [2] (setting [3]), in experiment [2] (setting [4]) and in experiment [2] (setting [5]) were < 1 µM, < 7 µM and < 1 µM, respectively.

With `O=C(CCCN1CCN(c2ccc(C(F)(F)F)cn2)CC1)N1CCC(Nc2ccc([N+](=O)[O-])c(C(F)(F)F)c2)CC1` [Example 151, 1-[4-(4-nitro-3-trifluoromethyl-phenylamino)-piperidin-1-yl]-4-[4-(5-trifluoromethyl-pyridin-2-yl)-piperazin-1-yl]-butan-1-one], the inhibition in vivo at 10 mg/kg in experiment [1] (po) turned out to be 88%; in experiment [1] (sc), 84%. In addition, the minimal effective concentration in experiment [2] (setting [3]) is < 1 µM; in experiment [2] (setting [4]), < 7 µM; in experiment [2] (setting [5]), < 1 µM.

Regarding `O=C(CCN1CCN(c2ccc(Cl)cc2)CC1)N1CCC(Nc2ccc(S(=O)(=O)c3ccc(F)cc3)cc2)CC1` [Example 295], the inhibition in vivo at 50 mg/kg in experiment [1] (setting [11]) came out at 97%; in experiment [1] (setting [12]) it was 0%. Further, the minimal effective concentration in experiment [2] (setting [10]) is < 1 µM.

In the case of `CC(C)(C)c1ccc(N2CCN(CCCC(=O)N3CCC(Nc4ccc(C#N)c(Cl)c4)CC3)CC2)cc1` [Example 322], the inhibition in vivo at 50 mg/kg in experiment [1] (po) came to 67%; in experiment [1] (sc), 73%. For the same compound, in experiment [2] (setting [5]), the minimal effective concentration was < 1 µM.

As for `CC(C)(C)c1ccc(N2CCN(CCC(=O)N3CCC(Nc4ccc(C#N)c(C(F)(F)F)c4)CC3)CC2)cc1` [Example 324], the inhibition in vivo at 50 mg/kg stood at 89% in experiment [1] (po) and 90% in experiment [1] (sc). Moreover, the minimal effective concentration in experiment [2] (setting [5]) was < 1 µM.

As for `CCOC(=O)c1ccc(NC2CCN(C(=O)CCN3CCN(c4ccc(C(C)(C)C)cc4)CC3)CC2)cc1` [Example 334], the figures for the inhibition in vivo at 50 mg/kg in experiment [1] (setting [11]) and in experiment [1] (setting [12]) were 78% and 82%, respectively. Further, the minimal effective concentration in experiment [2] (setting [8]) and in experiment [2] (setting [10]) was < 1 µM in each case.

Take `CN(C)S(=O)(=O)c1ccc(NC2CCN(C(=O)CCN3CCN(c4ccc(C(C)(C)C)cc4)CC3)CC2)cc1C(F)(F)F` [Example 345]: the figures for the inhibition in vivo at 50 mg/kg in experiment [1] (setting [11]) and in experiment [1] (setting [12]) were 76% and 61%, respectively. In experiment [2] (setting [10]), the minimal effective concentration is < 1 µM.

`CC(C)(C)c1ccc(C2CCN(CCC(=O)N3CCC(Nc4ccc([N+](=O)[O-])c(C(F)(F)F)c4)CC3)CC2)cc1` [Example 367]: the results for the inhibition in vivo at 50 mg/kg in experiment [1] (setting [11]) and in experiment [1] (setting [12]) were 73% and 45%, respectively. Further, the minimal effective concentration in experiment [2] (setting [10]) is < 1 µM.

`COc1cc(NC2CCN(C(=O)CCN3CCN(c4ccc(Cl)cc4)CC3)CC2)ccc1[N+](=O)[O-]` [Example 385]: the inhibition in vivo at 50 mg/kg in experiment [1] (setting [11]) stood at 0%; in experiment [1] (setting [12]), 83%. For the same compound, the minimal effective concentration in experiment [2] (setting [8]) is < 1 µM; in experiment [2] (setting [9]) it was < 7 µM; in experiment [2] (setting [10]), < 1 µM.

As to `Cn1nnc(-c2ccc(NC3CCN(C(=O)CCN4CCN(c5ccc(C(C)(C)C)cc5)CC4)CC3)cc2)n1` [Example 444], the figures for the inhibition in vivo at 50 mg/kg in experiment [1] (setting [11]) and in experiment [1] (setting [12]) were 78% and 52%, respectively. Besides, the minimal effective concentration in experiment [2] (setting [8]) was < 1 µM; in experiment [2] (setting [9]) it was < 7 µM; in experiment [2] (setting [10]) it was < 1 µM.

On to `CCCc1ccc(C2CCN(CCC(=O)N3CCC(Oc4ccc([N+](=O)[O-])c(OCC)c4)CC3)CC2)cc1` [Example 579], for which the inhibition in vivo at 50 mg/kg in experiment [1] (po) and in experiment [1] (sc) was 96% each time. Moreover, the minimal effective concentration in experiment [2] (setting [5]) was < 1 µM.
